Measurements from patent publication US9637483B2, “Heterocyclic compound” (TAKEDA PHARMACEUTICAL COMPANY LIMITED, priority 2013, dated 2017).

Tests used:
Assay type in all cases: biochemical
JAK1 = molecular target: T1, JAK1 (Homo sapiens, UniProt P23458); assay: JAK1 enzyme inhibition test (LANCE method); conditions: 1 μM test compound; for inhibition at 1 µM: read-out: JAK1 enzyme inhibitory activity (%, 1 μM)
T1 construct: purchased Invitrogen
Summary of the method: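 TR-FRET (LANCE) with ULight-JAK1 peptide (300 nM working solution) and ATP (150 μM working solution) in HEPES pH 7.5, MgCl2, EGTA, DTT buffer; 1 h at room temperature. EDTA stop plus Eu-anti-phosphotyrosine antibody, 665 nm read after 1 h. Inhibition relative to enzyme-free wells as 100%.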

JAK2 = molecular target: T2, JAK2 (Homo sapiens, UniProt O60674); assay: JAK2 enzyme inhibition test (LANCE method); conditions: 1 μM test compound; for inhibition at 1 µM: read-out: JAK2 enzyme inhibitory activity (%, 1 μM)
T2 construct: purchased Invitrogen
Summary of the method: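 Recombinant JAK2 (6 ng/mL solution) phosphorylated ULight-JAK1 peptide (300 nM solution) with ATP (45 μM solution) in pH 7.5 HEPES/MgCl2/DTT buffer for 1 hr at room temperature. After EDTA stop and europium anti-phosphotyrosine antibody for 1 hr, TR-FRET read at 665 nm; inhibition relative to enzyme-free wells as 100%.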

JAK3 = molecular target: T3, JAK3 (Homo sapiens, UniProt P52333); assay: JAK3 enzyme inhibition test (LANCE method); conditions: 1 μM test compound; for inhibition at 1 µM: read-out: JAK3 enzyme inhibitory activity (%, 1 μM)
T3 construct: purchased Invitrogen
T3 sequence (P52333 1-1124): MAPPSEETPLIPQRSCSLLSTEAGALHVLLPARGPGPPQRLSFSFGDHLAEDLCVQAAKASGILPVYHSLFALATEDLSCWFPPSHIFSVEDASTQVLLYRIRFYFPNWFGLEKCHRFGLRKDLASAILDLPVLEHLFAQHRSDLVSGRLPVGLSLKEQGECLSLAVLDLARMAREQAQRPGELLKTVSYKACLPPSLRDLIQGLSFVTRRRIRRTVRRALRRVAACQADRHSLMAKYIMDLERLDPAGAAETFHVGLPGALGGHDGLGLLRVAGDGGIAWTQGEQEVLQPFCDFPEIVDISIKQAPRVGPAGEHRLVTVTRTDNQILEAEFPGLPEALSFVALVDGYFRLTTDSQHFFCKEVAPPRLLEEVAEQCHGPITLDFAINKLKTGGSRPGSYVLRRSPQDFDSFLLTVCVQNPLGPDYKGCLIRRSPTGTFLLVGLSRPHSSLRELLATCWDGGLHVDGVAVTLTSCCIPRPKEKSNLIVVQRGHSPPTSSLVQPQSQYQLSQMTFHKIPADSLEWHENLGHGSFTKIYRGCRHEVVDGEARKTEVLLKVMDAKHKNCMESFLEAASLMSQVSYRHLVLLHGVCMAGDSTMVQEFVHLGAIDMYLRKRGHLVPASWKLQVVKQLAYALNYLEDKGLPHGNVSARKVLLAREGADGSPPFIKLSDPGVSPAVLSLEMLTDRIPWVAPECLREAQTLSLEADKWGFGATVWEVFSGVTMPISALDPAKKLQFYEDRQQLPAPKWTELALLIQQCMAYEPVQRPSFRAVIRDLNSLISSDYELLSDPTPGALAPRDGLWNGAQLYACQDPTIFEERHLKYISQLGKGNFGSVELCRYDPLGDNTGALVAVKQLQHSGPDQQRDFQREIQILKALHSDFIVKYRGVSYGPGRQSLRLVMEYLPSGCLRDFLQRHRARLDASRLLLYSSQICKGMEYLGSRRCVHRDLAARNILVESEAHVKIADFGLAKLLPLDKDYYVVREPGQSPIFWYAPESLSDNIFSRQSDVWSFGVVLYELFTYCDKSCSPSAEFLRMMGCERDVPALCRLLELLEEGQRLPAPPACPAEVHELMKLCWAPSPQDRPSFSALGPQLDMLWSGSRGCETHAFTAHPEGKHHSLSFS
Summary of the method: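 Recombinant JAK3 (12 ng/mL solution) with ULight-JAK1 peptide (300 nM solution) and ATP (15 μM solution) in HEPES pH 7.5 buffer, 1 h at room temperature. EDTA stop with Eu-anti-phosphotyrosine antibody; TR-FRET at 665 nm. Inhibition relative to enzyme-free wells as 100%.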

TYK2 = molecular target: T4, TYK2 (Homo sapiens, UniProt P29597); assay: TYK2 enzyme inhibition test (LANCE method); conditions: 1 μM test compound; for inhibition at 1 µM: read-out: TYK2 enzyme inhibitory activity (%, 1 μM)
T4 construct: purchased Invitrogen
Summary of the method: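 Recombinant TYK2 (375 ng/mL working solution) with ULight-JAK1 peptide (300 nM working solution) and ATP (30 μM working solution) in HEPES pH 7.5 buffer with MgCl2, EGTA, DTT, Tween20, BSA, reacted 1 h at RT. EDTA-stopped, Eu-anti-phosphotyrosine TR-FRET read at 665 nm; inhibition relative to enzyme-free wells as 100%.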

T4 sequence (P29597 whole entry): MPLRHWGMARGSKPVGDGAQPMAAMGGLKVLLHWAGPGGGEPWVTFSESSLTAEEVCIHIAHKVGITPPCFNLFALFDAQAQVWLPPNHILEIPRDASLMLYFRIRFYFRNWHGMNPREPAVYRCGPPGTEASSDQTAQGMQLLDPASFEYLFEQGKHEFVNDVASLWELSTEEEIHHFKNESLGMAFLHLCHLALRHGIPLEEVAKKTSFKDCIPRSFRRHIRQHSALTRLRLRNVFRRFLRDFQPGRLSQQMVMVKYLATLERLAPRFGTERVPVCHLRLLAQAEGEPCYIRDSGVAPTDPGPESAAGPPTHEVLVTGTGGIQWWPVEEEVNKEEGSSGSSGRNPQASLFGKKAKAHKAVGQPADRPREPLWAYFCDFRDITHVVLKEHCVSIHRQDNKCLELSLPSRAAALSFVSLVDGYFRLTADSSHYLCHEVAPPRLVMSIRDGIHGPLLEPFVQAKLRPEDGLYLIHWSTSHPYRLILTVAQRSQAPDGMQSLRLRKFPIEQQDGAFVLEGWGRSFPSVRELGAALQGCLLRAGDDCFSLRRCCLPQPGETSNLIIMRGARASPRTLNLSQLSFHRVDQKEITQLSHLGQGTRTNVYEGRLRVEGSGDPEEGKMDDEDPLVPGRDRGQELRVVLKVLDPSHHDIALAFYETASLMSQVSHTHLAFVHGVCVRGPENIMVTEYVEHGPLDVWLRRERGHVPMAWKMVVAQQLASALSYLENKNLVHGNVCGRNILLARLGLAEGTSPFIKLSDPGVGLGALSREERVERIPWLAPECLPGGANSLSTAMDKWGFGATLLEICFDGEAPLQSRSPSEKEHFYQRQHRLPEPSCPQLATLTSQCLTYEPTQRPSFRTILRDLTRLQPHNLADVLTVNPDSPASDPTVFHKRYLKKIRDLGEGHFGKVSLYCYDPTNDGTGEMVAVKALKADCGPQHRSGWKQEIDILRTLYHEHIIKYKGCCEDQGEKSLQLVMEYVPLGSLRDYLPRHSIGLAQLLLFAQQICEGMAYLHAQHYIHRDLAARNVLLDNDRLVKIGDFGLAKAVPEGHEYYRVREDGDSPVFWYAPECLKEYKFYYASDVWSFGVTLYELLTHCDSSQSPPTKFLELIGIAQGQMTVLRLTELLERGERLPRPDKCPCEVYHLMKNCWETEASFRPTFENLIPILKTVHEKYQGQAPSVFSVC
T2 sequence (O60674 whole entry): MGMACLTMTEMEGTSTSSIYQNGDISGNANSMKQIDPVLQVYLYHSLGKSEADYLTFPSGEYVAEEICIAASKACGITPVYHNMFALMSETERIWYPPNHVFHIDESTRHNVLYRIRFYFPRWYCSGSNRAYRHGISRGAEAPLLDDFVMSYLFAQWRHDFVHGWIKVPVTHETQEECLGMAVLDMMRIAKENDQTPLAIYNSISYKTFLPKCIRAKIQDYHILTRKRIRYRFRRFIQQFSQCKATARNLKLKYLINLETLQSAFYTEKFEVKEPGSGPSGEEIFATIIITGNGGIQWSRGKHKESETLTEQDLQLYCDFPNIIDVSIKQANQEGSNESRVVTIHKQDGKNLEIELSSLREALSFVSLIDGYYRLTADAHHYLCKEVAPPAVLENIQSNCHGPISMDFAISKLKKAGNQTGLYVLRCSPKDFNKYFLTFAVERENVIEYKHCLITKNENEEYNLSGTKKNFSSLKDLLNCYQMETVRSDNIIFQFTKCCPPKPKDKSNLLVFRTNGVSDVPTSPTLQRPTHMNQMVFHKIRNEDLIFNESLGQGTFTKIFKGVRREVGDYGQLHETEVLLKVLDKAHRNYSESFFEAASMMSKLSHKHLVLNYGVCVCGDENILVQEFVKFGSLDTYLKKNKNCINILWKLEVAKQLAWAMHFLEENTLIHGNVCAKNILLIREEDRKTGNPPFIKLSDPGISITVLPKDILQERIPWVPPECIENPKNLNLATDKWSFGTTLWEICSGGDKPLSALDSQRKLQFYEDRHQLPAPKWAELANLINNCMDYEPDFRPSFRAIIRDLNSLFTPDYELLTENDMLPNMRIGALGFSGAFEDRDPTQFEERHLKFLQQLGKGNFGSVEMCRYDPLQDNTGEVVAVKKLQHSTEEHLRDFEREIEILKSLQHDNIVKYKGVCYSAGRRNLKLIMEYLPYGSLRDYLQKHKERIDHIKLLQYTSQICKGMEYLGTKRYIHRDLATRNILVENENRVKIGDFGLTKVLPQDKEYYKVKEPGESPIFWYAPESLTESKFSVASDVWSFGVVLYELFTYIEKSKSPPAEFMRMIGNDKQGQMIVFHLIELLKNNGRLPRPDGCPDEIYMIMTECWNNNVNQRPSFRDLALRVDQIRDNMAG
T1 sequence (P23458 whole entry): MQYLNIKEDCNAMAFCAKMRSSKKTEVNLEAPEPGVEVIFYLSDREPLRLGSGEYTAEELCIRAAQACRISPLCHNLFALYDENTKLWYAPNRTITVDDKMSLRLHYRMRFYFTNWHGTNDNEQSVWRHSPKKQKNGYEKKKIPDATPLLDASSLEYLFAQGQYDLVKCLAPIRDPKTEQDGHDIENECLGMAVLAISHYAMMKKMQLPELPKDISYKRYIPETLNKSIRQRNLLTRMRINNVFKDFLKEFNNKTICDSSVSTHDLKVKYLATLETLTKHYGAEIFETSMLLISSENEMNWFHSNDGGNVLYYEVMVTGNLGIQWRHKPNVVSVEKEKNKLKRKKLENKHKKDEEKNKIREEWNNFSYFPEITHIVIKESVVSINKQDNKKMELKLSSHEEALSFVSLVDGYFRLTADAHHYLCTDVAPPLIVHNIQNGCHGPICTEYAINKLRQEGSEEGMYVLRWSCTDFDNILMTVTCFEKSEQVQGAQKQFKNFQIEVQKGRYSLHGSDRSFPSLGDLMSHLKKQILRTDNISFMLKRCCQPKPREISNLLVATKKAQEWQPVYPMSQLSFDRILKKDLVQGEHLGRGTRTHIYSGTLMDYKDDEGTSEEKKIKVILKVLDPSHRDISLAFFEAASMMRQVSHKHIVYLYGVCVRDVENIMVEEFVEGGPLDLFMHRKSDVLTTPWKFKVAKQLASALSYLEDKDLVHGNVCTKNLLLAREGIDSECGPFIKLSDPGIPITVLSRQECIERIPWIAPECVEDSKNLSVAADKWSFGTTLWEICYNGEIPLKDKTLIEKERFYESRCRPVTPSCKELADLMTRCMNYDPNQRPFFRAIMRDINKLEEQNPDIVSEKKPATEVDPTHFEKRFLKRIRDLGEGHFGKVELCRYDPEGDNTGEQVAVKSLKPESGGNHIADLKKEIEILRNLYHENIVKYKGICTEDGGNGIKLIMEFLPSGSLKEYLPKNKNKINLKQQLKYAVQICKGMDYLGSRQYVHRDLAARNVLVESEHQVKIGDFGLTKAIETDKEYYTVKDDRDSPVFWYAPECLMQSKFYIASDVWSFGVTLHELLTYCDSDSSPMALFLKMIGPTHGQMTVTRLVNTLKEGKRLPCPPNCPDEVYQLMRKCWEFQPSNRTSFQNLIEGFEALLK

inhibition at 1 µM (JAK1)	inhibition at 1 µM (JAK2)	inhibition at 1 µM (JAK3)	inhibition at 1 µM (TYK2)	JAK1 enzyme inhibitory activity (%, 1 μM) (JAK1)	JAK2 enzyme inhibitory activity (%, 1 μM) (JAK2)	JAK3 enzyme inhibitory activity (%, 1 μM) (JAK3)	TYK2 enzyme inhibitory activity (%, 1 μM) (TYK2)	SMILES
97%	99%	99%	100%	–	–	–	–	CC(C)[C@H](C)n1cc(-c2cc(N3CCC(F)(F)C3)n(C)n2)c2[nH]nc(N)c2c1=O [Example 106, 3-amino-7-(5-(3,3-difluoropyrrolidin-1-yl)-1-methyl-1H-pyrazol-3-yl)-5-((2S)-3-methylbutan-2-yl)-1,5-dihydro-4H-pyrazolo[4,3-c]pyridin-4-one]
97%	98%	99%	100%	–	–	–	–	CC(C)[C@H](C)n1cc(-c2cc(N3CCN(S(=O)(=O)C4CC4)CC3)n(C)n2)c2[nH]nc(N)c2c1=O [Example 107, 3-amino-7-(5-(4-(cyclopropylsulfonyl)piperazin-1-yl)-1-methyl-1H-pyrazol-3-yl)-5-((2S)-3-methylbutan-2-yl)-1,5-dihydro-4H-pyrazolo[4,3-c]pyridin-4-one]
98%	98%	99%	100%	–	–	–	–	CC(C)[C@H](C)n1cc(-c2cc(N3CCN(S(C)(=O)=O)CC3)n(C)n2)c2[nH]nc(N)c2c1=O [Example 108, 3-amino-5-((2S)-3-methylbutan-2-yl)-7-(1-methyl-5-(4-(methylsulfonyl)piperazin-1-yl)-1H-pyrazol-3-yl)-1,5-dihydro-4H-pyrazolo[4,3-c]pyridin-4-one]
98%	99%	99%	99%	–	–	–	–	COC(C)(C)c1cc(-c2cn([C@@H](C)C(C)C)c(=O)c3c(N)n[nH]c23)nn1C [Example 109, 3-amino-7-(5-(2-methoxypropan-2-yl)-1-methyl-1H-pyrazol-3-yl)-5-((2S)-3-methylbutan-2-yl)-1,5-dihydro-4H-pyrazolo[4,3-c]pyridin-4-one]
89%	99%	99%	100%	–	–	–	–	COC1(c2cc(-c3cn([C@@H](C)C(C)C)c(=O)c4c(N)n[nH]c34)nn2C)CCS(=O)(=O)CC1 [Example 110, 3-amino-7-(5-(4-methoxy-1,1-dioxidotetrahydro-2H-thiopyran-4-yl)-1-methyl-1H-pyrazol-3-yl)-5-((2S)-3-methylbutan-2-yl)-1,5-dihydro-4H-pyrazolo[4,3-c]pyridin-4-one]
–	–	99%	99%	97%	98%	–	–	CC(C)C(C#N)n1cc(-c2cc(N3CCOCC3)n(C)n2)c2[nH]nc(N)c2c1=O (stereo not drawn) [Example 113, 2-(3-amino-7-(1-methyl-5-(morpholin-4-yl)-1H-pyrazol-3-yl)-4-oxo-1,4-dihydro-5H-pyrazolo[4,3-c]pyridin-5-yl)-3-methylbutanenitrile]
–	–	–	–	68%	74%	84%	95%	CC(C)C(C#N)n1cc(-c2cc(N3CCOCC3)n(C)n2)c2[nH]nc(N)c2c1=O (stereo not drawn) [Example 114, 2-(3-amino-7-(1-methyl-5-(morpholin-4-yl)-1H-pyrazol-3-yl)-4-oxo-1,4-dihydro-5H-pyrazolo[4,3-c]pyridin-5-yl)-3-methylbutanenitrile]
85%	85%	97%	99%	–	–	–	–	CC1CCCCC1n1cc(-c2cc(C(C)(C)O)n(C)n2)c2[nH]nc(N)c2c1=O (stereo not drawn) [Example 117, 3-amino-7-(5-(2-hydroxypropan-2-yl)-1-methyl-1H-pyrazol-3-yl)-5-(2-methylcyclohexyl)-1,5-dihydro-4H-pyrazolo[4,3-c]pyridin-4-one]

Second part, the molecule before the results:

SMILES	inhibition at 1 µM (JAK1)	inhibition at 1 µM (JAK2)	inhibition at 1 µM (JAK3)	inhibition at 1 µM (TYK2)	JAK1 enzyme inhibitory activity (%, 1 μM) (JAK1)	JAK2 enzyme inhibitory activity (%, 1 μM) (JAK2)	JAK3 enzyme inhibitory activity (%, 1 μM) (JAK3)	TYK2 enzyme inhibitory activity (%, 1 μM) (TYK2)
COC1(c2cc(-c3cn([C@@H](C)C(C)C)c(=O)c4c(N)n[nH]c34)nn2C)CN(C(=O)C(C)C)C1 [Example 111, 3-amino-7-(5-(1-isobutyryl-3-methoxyazetidin-3-yl)-1-methyl-1H-pyrazol-3-yl)-5-((2S)-3-methylbutan-2-yl)-1,5-dihydro-4H-pyrazolo[4,3-c]pyridin-4-one]	83%	97%	98%	100%	–	–	–	–
CC(C)C(C1CC1)n1cc(-c2cc(N3CCOCC3)n(C)n2)c2[nH]nc(N)c2c1=O (stereo not drawn) [Example 115, 3-amino-5-(1-cyclopropyl-2-methylpropyl)-7-(1-methyl-5-(morpholin-4-yl)-1H-pyrazol-3-yl)-1,5-dihydro-4H-pyrazolo[4,3-c]pyridin-4-one]	93%	91%	99%	100%	–	–	–	–
CC1CCCCC1n1cc(-c2cc(C(C)(C)O)n(C)n2)c2[nH]nc(N)c2c1=O (stereo not drawn) [Example 118, 3-amino-7-(5-(2-hydroxypropan-2-yl)-1-methyl-1H-pyrazol-3-yl)-5-(2-methylcyclohexyl)-1,5-dihydro-4H-pyrazolo[4,3-c]pyridin-4-one]	–	–	–	–	98%	97%	99%	100%
CC1CCCCC1n1cc(-c2cc(C(C)(C)O)n(C)n2)c2[nH]nc(N)c2c1=O (stereo not drawn) [Example 119, 3-amino-7-(5-(2-hydroxypropan-2-yl)-1-methyl-1H-pyrazol-3-yl)-5-(2-methylcyclohexyl)-1,5-dihydro-4H-pyrazolo[4,3-c]pyridin-4-one]	–	–	–	–	99%	98%	100%	100%
CC1CCCCC1n1cc(-c2cc(C(C)(C)O)n(C)n2)c2[nH]nc(N)c2c1=O (stereo not drawn) [Example 120, 3-amino-7-(5-(2-hydroxypropan-2-yl)-1-methyl-1H-pyrazol-3-yl)-5-(2-methylcyclohexyl)-1,5-dihydro-4H-pyrazolo[4,3-c]pyridin-4-one]	–	–	–	–	100%	100%	100%	101%
COC(C)(C)c1cc(-c2cn(-c3c(F)cccc3C#N)c(=O)c3c(N)n[nH]c23)nn1C [Example 121, 2-(3-amino-7-(5-(2-methoxypropan-2-yl)-1-methyl-1H-pyrazol-3-yl)-4-oxo-1,4-dihydro-5H-pyrazolo[4,3-c]pyridin-5-yl)-3-fluorobenzonitrile]	98%	98%	97%	100%	–	–	–	–
CC(C)N(C)c1cc(-c2cn(-c3c(F)cccc3C#N)c(=O)c3c(N)n[nH]c23)nn1C [Example 122, 2-(3-amino-7-(5-(isopropyl(methyl)amino)-1-methyl-1H-pyrazol-3-yl)-4-oxo-1,4-dihydro-5H-pyrazolo[4,3-c]pyridin-5-yl)-3-fluorobenzonitrile]	97%	93%	97%	101%	–	–	–	–
